Reference: article PMC6775094, “A robust bacterial assay for high-throughput screening of human 4-hydroxyphenylpyruvate dioxygenase inhibitors” (Scientific Reports, 2019)

Molecular target: T1, 4-hydroxyphenylpyruvate dioxygenase (HPD) (Homo sapiens, UniProt P32754)
T1 construct: wild type human HPD (NM_002150.2), pET42b(+), expressed in E. coli C43 (DE3)
Test: cell-based

T1 sequence (P32754 2-393): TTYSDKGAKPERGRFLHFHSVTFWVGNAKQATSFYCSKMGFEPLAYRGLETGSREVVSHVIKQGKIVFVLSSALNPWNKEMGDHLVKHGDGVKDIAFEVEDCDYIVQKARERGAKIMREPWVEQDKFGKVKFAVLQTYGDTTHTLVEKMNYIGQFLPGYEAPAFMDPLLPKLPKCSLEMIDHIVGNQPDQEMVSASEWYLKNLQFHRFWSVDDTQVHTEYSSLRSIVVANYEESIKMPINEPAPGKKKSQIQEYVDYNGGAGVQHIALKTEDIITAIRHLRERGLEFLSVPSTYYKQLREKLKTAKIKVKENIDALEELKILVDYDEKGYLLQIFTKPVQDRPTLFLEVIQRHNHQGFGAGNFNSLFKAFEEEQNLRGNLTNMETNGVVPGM

| SMILES | IC50 [nM] |
| --- | --- |
| CS(=O)(=O)c1ccc(C(=O)C2C(=O)CCCC2=O)c([N+](=O)[O-])c1 [mesotrione] | 396 ± 48 |
| CS(=O)(=O)c1ccc(C(=O)C2C(=O)CCCC2=O)c(Cl)c1 [sulcotrione] | 187 ± 37 |
| CS(=O)(=O)c1ccc(C(=O)C2C(=O)CCCC2=O)c(Cl)c1COCC(F)(F)F [tembotrione] | 610 ± 15 |
